For 50 molecules, MIC results are on record in PubChem BioAssay AID691 (PCMD, 2007).

In the test the test system is Zebrafish larvae lipid metabolism, fluorescent lipid gallbladder/intestine. Briefly: larval zebrafish lipid processing modulation – whole organism, confirmation, fluorescent lipid, gallbladder/intestine, dose response (AID 691).

In brackets after ≈: the same amount, converted by molar mass. Results filed as inconclusive are left out. Activity calls are given as the source filed them. How the calls were made is not given here.

What is called MIC is the lowest concentration found to suppress growth. Consider `CCOC(=O)CCc1c(C)c(C#N)c2[nH]c3ccccc3n2c1=O`, for which the MIC is > 100 µM (inactive).
In the case of `COC(=O)c1ccc(Cn2nnc3c(sc4nc(N5CCOCC5)c5c(c43)CCCC5)c2=O)o1` it was > 100 µM (inactive); in that of `CC(C)N=c1cc2n(-c3ccc(Cl)cc3)c3ccccc3nc-2cc1Nc1ccc(Cl)cc1`, 6.25 µM (≈ 2.96 µg/mL); in that of `Cc1c(N=Cc2c(O)n(CCc3ccc(F)cc3)c(=O)[nH]c2=O)c(=O)n(-c2ccccc2)n1C`, > 100 µM (inactive).
For `CCNC(=O)c1cc2c(=O)n3cccc(C)c3nc2n(CCc2ccccc2)c1=N` the value was > 100 µM (inactive); for `CCN(CC)C(=O)c1sc2nc(-c3cccs3)cc(-c3cccs3)c2c1N`, 12.5 µM (≈ 5.17 µg/mL).
For `O=C1c2ccccc2-c2onc3ccc(NCc4ccco4)c1c23` the value was 3.91 µM (≈ 1.24 µg/mL).
On to `CCN(CC)c1ccc(C2Nc3cccc4cccc(c34)N2)c(O)c1`, for which the MIC is > 100 µM (inactive).
For `COC(=O)C1=C(N)Oc2cc(C)oc(=O)c2C1c1ccncc1` (stereo not given) the value was > 100 µM (inactive); for `Clc1ccc(OCc2nnc(SCCN3CCCCC3)n2Cc2ccco2)cc1`, 75 µM (≈ 32.5 µg/mL).
In the case of `c1ccc(CN2CCN(c3ncnc4c3[nH]c3ccccc34)CC2)cc1` it was 31.3 µM (≈ 10.7 µg/mL); in that of `Cc1ccc(CNC(=O)c2cc3c(=O)n4ccccc4nc3n(Cc3ccco3)c2=N)cc1`, 62.5 µM (≈ 27.5 µg/mL).
Regarding `COCCCN1C(=O)C(O)=C(C(C)=O)C1c1ccccn1` (stereo not given), the MIC was > 100 µM (inactive).
In the case of `COc1ccc(C)cc1-n1nnnc1SC/C(O)=C(\C#N)c1nc2ccccc2[nH]1` it was > 100 µM (inactive); in that of `Cc1c(N=Cc2c(O)n(C3CCCCC3)c(=O)[nH]c2=O)c(=O)n(-c2ccccc2)n1C`, > 100 µM (inactive).
For `CNc1oc(-c2ccccc2Cl)nc1C#N` the value was > 100 µM (inactive); for `CCOC(=O)CSc1nc(N)c(C(=O)Nc2ccc(N(C)C)cc2)s1`, 25 µM (≈ 9.51 µg/mL).
On to `N#Cc1ccc(CSc2nnc(-c3ccccn3)n2-c2ccccc2)cc1`, for which the MIC was > 100 µM (inactive).
For `N#CC1=C(SCC(=O)c2ccc(Cl)cc2)NC2=C(C(=O)CCC2)C1c1ccco1` (stereo not given) the value was > 100 µM (inactive); for `CN(C)[C@@H]1C(=O)C(C(N)=O)=C(O)[C@@]2(O)C(=O)C3=C(O)c4c(O)ccc(Cl)c4[C@@H](O)[C@H]3C[C@@H]12`, > 100 µM (inactive); for `CC1(c2cnc(Nc3ccccc3)s2)CCC(=O)O1` (stereo not given), > 100 µM (inactive).
In the case of `COC(=O)c1cc(Br)c(=O)n(CCc2ccc(F)cc2)c1` it was > 100 µM (inactive); in that of `Cc1ccc2[nH]c3c(c2c1)CN(C(=O)CN1CCCc2ccccc21)CC3`, > 100 µM (inactive); in that of `Cc1nnc(NC(=O)C2CCCO2)s1` (stereo not given), > 100 µM (inactive).
For `CNc1ccccc1-c1nc2ccccc2n(C)c1=O` the value was 15.6 µM (≈ 4.15 µg/mL).
`Cn1c(C(=O)OC(C(=O)NC2CCCC2)c2cccnc2)cc2sccc21` (stereo not given): the MIC was > 100 µM (inactive).
In the case of `CS(=O)(=O)Nc1ccc([N+](=O)[O-])cc1Oc1ccccc1` it was > 100 µM (inactive); in that of `COC(=O)c1sccc1NC(=O)c1ccco1`, > 100 µM (inactive).
In the case of `Cc1ccc2nc(C3CCN(CC(=O)N4CCCCCC4)CC3)[nH]c2c1` it was > 100 µM (inactive); in that of `CC(=O)Nc1nnc(S(N)(=O)=O)s1`, > 100 µM (inactive); in that of `N#CCSc1nc2c(c(=O)n1Cc1ccco1)C1(CCCC1)Cc1ccccc1-2`, 25 µM (≈ 10.1 µg/mL).
For `CCCC1CC(=O)OC1(C)C(=O)CSc1n[nH]c(-c2ccccc2)n1` (stereo not given) the value was > 100 µM (inactive); for `COc1ccc(C2CC(C(F)(F)F)n3ncc(C(=O)Nc4cccc(O)c4)c3N2)cc1OC` (stereo not given), > 100 µM (inactive).
In the case of `OCCN1CCN(CCCN2c3ccccc3Sc3ccc(C(F)(F)F)cc32)CC1`, the MIC was > 100 µM (inactive).
For `COc1ccccc1-c1nnc2sc(C3CCCCC3)nn12` the value was > 100 µM (inactive); for `c1coc(-c2nnc3sc(-c4cccs4)nn23)c1`, 9.37 µM (≈ 2.57 µg/mL); for `CCCCOc1ccccc1C(=O)NCCCC(=O)O`, > 100 µM (inactive).
For `COc1cccc(-c2nnc3sc(-c4ccco4)nn23)c1` the value was > 100 µM (inactive); for `Cc1csc(NC(=O)Nc2cccc(Cl)c2)n1`, > 100 µM (inactive).
In the case of `C=CCn1c(N)c(C(=O)Nc2ccccc2)c2nc3ccccc3nc21`, the MIC is > 100 µM (inactive).
In the case of `COc1ccc2c(c1)c(C(=O)CN1CCOCC1)c(C)n2C`, the MIC is > 100 µM (inactive).
On to `CCOC(=O)CSc1nnc2n(Cc3ccccc3)c(=O)c3c4c(sc3n12)CCC4`, for which the MIC is > 100 µM (inactive).
In the case of `N#Cc1c(NCCN)nc(NCc2ccccc2)c2c1CCN(Cc1ccccc1)C2` it was > 100 µM (inactive); in that of `CC1(C)Cc2c(C#N)c(NCc3ccco3)nc(-c3ccco3)c2CO1`, > 100 µM (inactive).
In the case of `COc1ccc(OC)c(Nc2nc(-c3cccs3)cs2)c1` it was 56.2 µM (≈ 17.9 µg/mL).
In the case of `CCN1CC2=C(OC(N)=C(C#N)C2c2ccccc2)/C(=C\c2ccccc2)C1` (stereo not given) it was > 100 µM (inactive); in that of `Cc1cccc2c1NC(C)CC2C` (stereo not given), > 100 µM (inactive); in that of `CCOC(=O)C1CCCN(c2nc3ccccc3nc2C(C#N)C(=O)OCCOC)C1` (stereo not given), > 100 µM (inactive).
As to `c1ccc(-c2nnc3sc(Cc4cccs4)nn23)cc1`, the MIC was 18.8 µM (≈ 5.59 µg/mL).
For `CC1Oc2ccccc2N(CC(=O)NCc2cccs2)C1=O` (stereo not given) the value was > 100 µM (inactive).
